From PubChem BioAssay (NCI) come the findings set out here.

Each structure is given as a SMILES string.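 Cultured in 96-well plates, cells were exposed to test compound for 48 hours across five concentrations. The concentration for 50% growth inhibition is given as GI50. The concentration for full growth arrest is given as TGI.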 Where only a bound is given, the exact number is not on record here.

Among the test systems are SNB-19 CNS; HCT-15 colon; HOP-92 NSCLC; UO-31 renal; CCRF-CEM leukemia; SN12C renal; SK-MEL-2 melanoma; HL-60(TB) leukemia; MALME-3M melanoma; CAKI-1 renal.
Test in all cases: NCI anticancer screen, dose series, 48 h

Regarding `O=C(O)Cn1c2c(c3c1-c1ccccc1C3=O)C(=O)CCC2`, the GI50 is more than 100 µM in the assay with SNB-19 CNS; more than 100 µM in the assay with HCT-15 colon; 20 µM in the assay with HOP-92 NSCLC; more than 100 µM with UO-31 renal; 32 µM in the assay with CCRF-CEM leukemia; more than 100 µM in the assay with SN12C renal. Besides, the GI50 in the assay on SK-MEL-2 melanoma, in the assay with HL-60(TB) leukemia, in the assay with MALME-3M melanoma and in the assay with CAKI-1 renal was more than 100 µM in each case. Also, the TGI in the assay on SNB-19 CNS, in the assay on HCT-15 colon, in the assay on HOP-92 NSCLC, in the assay with UO-31 renal, in the assay on CCRF-CEM leukemia and in the assay on SN12C renal was more than 100 µM in each case. Further, the TGI with SK-MEL-2 melanoma, in the assay with HL-60(TB) leukemia, in the assay with MALME-3M melanoma and in the assay on CAKI-1 renal was more than 100 µM in each case.

Turning to `CSc1nnc(SCc2nn3c(=O)cc(C)nc3s2)s1`, the TGI in the assay with SNB-19 CNS, in the assay with HCT-15 colon, in the assay on HOP-92 NSCLC, with UO-31 renal, in the assay on CCRF-CEM leukemia and in the assay on SN12C renal was more than 100 µM throughout. For the same compound, the TGI in the assay with SK-MEL-2 melanoma, in the assay on HL-60(TB) leukemia, in the assay with MALME-3M melanoma and in the assay with CAKI-1 renal was more than 100 µM throughout.

Regarding `CC(C)(C)c1cc(OCc2nnc3sc(Cc4ccccc4)nn23)c(Cl)cc1OCc1nnc2sc(Cc3ccccc3)nn12`, the TGI with SNB-19 CNS was more than 100 µM; with HCT-15 colon, more than 100 µM; in the assay on HOP-92 NSCLC it was 35.4 µM; in the assay with UO-31 renal, more than 100 µM; with CCRF-CEM leukemia it was 8.97 µM; in the assay on SN12C renal it was more than 100 µM. Besides, the TGI in the assay with SK-MEL-2 melanoma is more than 100 µM; in the assay on HL-60(TB) leukemia, 58.3 µM; in the assay on MALME-3M melanoma, more than 100 µM; in the assay with CAKI-1 renal, more than 100 µM.

In the case of `Cc1nc2ccc(Br)cc2c(=O)n1-c1ccc(N)cc1`, the TGI in the assay on SNB-19 CNS, in the assay with HCT-15 colon, in the assay with HOP-92 NSCLC, in the assay on UO-31 renal, with CCRF-CEM leukemia and with SN12C renal was more than 100 µM throughout. Also, the TGI with SK-MEL-2 melanoma, in the assay with HL-60(TB) leukemia, in the assay on MALME-3M melanoma and in the assay on CAKI-1 renal was more than 100 µM each time.

For `COc1cc(S(=O)(=O)Nc2ccc(-c3csc(N4C(=O)C(Cl)C4c4ccccc4O)n3)cc2)ccc1Cl` (stereo not given), the TGI is more than 100 µM with SNB-19 CNS; more than 100 µM in the assay on HCT-15 colon; 91.9 µM with HOP-92 NSCLC; more than 100 µM in the assay with UO-31 renal; 9.13 µM in the assay on CCRF-CEM leukemia; more than 100 µM with SN12C renal. For the same compound, the TGI with SK-MEL-2 melanoma is more than 100 µM; in the assay with HL-60(TB) leukemia it was 49.7 µM; in the assay on MALME-3M melanoma, more than 100 µM; in the assay with CAKI-1 renal, more than 100 µM.

Consider `O=C1Nc2cccc(Cl)c2/C1=C\c1c(-c2ccccc2)nc2n1CCS2`, for which the TGI in the assay with SNB-19 CNS turned out to be 66.1 µM; in the assay on HCT-15 colon, 83.1 µM; in the assay on HOP-92 NSCLC, 56.9 µM; in the assay on UO-31 renal, 48.8 µM; in the assay with CCRF-CEM leukemia it was 33.1 µM; in the assay on SN12C renal, 31.7 µM. The TGI with SK-MEL-2 melanoma came to 46.2 µM; with HL-60(TB) leukemia, 41.3 µM; in the assay on MALME-3M melanoma, 46.3 µM; in the assay on CAKI-1 renal it was 73.8 µM.

With `O=CC(O)C(O)C(O)C(O)COC(=O)NCCCCC(=O)C(F)(F)C(F)(F)C(F)(F)C(F)(F)C(F)(F)C(F)(F)C(F)(F)F` (stereo not given), the TGI is 31.8 µM in the assay on SNB-19 CNS; more than 100 µM in the assay with HCT-15 colon; 31.8 µM in the assay on HOP-92 NSCLC; more than 100 µM in the assay with UO-31 renal; 56 µM in the assay with CCRF-CEM leukemia; more than 100 µM in the assay on SN12C renal. Also, the TGI is 57.5 µM with SK-MEL-2 melanoma, more than 100 µM in the assay with HL-60(TB) leukemia, more than 100 µM with MALME-3M melanoma and more than 100 µM in the assay with CAKI-1 renal.

For `O=c1[nH]cc(N=Cc2cc(Cl)ccc2O)c(=O)[nH]1`, the TGI in the assay with SNB-19 CNS was more than 100 µM; in the assay with HCT-15 colon, more than 100 µM; with HOP-92 NSCLC it was 89.8 µM; in the assay with UO-31 renal it was more than 100 µM; with CCRF-CEM leukemia, 19 µM; in the assay with SN12C renal, more than 100 µM. Besides, the TGI is 64.5 µM in the assay with SK-MEL-2 melanoma, 52.6 µM with HL-60(TB) leukemia, 73.8 µM in the assay on MALME-3M melanoma and more than 100 µM with CAKI-1 renal.

On to `COc1ccc(-n2c(N)c(C#N)c(C#N)c2-c2ccco2)cc1`, for which the TGI in the assay on SNB-19 CNS, with HCT-15 colon, with HOP-92 NSCLC, with UO-31 renal, with CCRF-CEM leukemia and with SN12C renal was more than 100 µM in each case. Moreover, the TGI in the assay with SK-MEL-2 melanoma, in the assay with HL-60(TB) leukemia, in the assay on MALME-3M melanoma and in the assay on CAKI-1 renal was more than 100 µM throughout.

Take `O=c1[nH]n(CCc2ccccc2CCl)c2ccc([N+](=O)[O-])cc12`: the TGI in the assay with SNB-19 CNS, in the assay on HCT-15 colon, in the assay on HOP-92 NSCLC, with UO-31 renal, in the assay with CCRF-CEM leukemia and in the assay with SN12C renal was more than 100 µM each time. The TGI in the assay on SK-MEL-2 melanoma, in the assay with HL-60(TB) leukemia, in the assay with MALME-3M melanoma and in the assay on CAKI-1 renal was more than 100 µM throughout.

Turning to `Cc1cc(C)nc(NS(=O)(=O)c2ccc(NNc3c4ccccc4nc4c(C(=O)Nc5ccc(S(=O)(=O)Nc6cc(C)on6)cc5)cccc34)cc2)n1`, the TGI was more than 100 µM with SNB-19 CNS; more than 100 µM in the assay with HCT-15 colon; more than 100 µM with HOP-92 NSCLC; more than 100 µM in the assay with UO-31 renal; 63.5 µM with CCRF-CEM leukemia; more than 100 µM in the assay with SN12C renal. The TGI in the assay with SK-MEL-2 melanoma is 62.5 µM; with HL-60(TB) leukemia, 80.6 µM; in the assay on MALME-3M melanoma, more than 100 µM; with CAKI-1 renal, more than 100 µM.

On to `O=Nc1c(-c2c(O)[nH]c3ccc(I)cc23)[nH]c2ccccc12`, for which the TGI with SNB-19 CNS was more than 62.1 µM; in the assay with HCT-15 colon, more than 39.9 µM; with HOP-92 NSCLC it was more than 27.7 µM; in the assay on UO-31 renal, 5.43 µM; in the assay with CCRF-CEM leukemia, 5.07 µM; in the assay with SN12C renal, 17.9 µM. Also, the TGI with SK-MEL-2 melanoma was 4.93 µM; with HL-60(TB) leukemia, 6.96 µM; with MALME-3M melanoma, more than 32.7 µM; in the assay on CAKI-1 renal, more than 100 µM.
